{"source": "patent US20250230193A1", "about": "“CYCLIC COMPOUND HAVING SELECTIVE KRAS INHIBITORY EFFECT ON HRAS AND NRAS” (CHUGAI SEIYAKU KABUSHIKI KAISHA, priority 2022, published 2025)", "key": {"[1]": {"molecular_target": "GDP-bound NRAS wild-type protein (Homo sapiens, UniProt P01111)", "sequence (P01111 whole entry)": "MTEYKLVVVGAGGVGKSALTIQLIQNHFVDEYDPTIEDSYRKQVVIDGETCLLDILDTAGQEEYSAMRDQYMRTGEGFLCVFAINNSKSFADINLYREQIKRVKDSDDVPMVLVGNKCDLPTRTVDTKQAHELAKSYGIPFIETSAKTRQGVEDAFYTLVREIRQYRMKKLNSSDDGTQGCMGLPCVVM", "assay": "Binding to NRAS by surface plasmon resonance (SPR), Single Cycle Kinetics", "details": "for NRAS/KRAS (ratio of KD value for NRAS to KD value for KRAS): GDP-bound NRAS wild-type vs GDP-bound KRAS wild-type"}, "[2]": {"molecular_target": "GDP-bound HRAS wild-type protein (Homo sapiens, UniProt P01112)", "sequence (P01112 whole entry)": "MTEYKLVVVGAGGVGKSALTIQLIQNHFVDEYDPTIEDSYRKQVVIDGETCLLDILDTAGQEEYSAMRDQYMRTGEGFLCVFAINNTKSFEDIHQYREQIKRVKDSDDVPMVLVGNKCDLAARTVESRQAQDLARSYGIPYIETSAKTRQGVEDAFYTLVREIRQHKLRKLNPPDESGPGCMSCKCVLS", "assay": "Binding to HRAS by surface plasmon resonance (SPR), Single Cycle Kinetics", "details": "for HRAS/KRAS (ratio of KD value for HRAS to KD value for KRAS): GDP-bound HRAS wild-type vs GDP-bound KRAS wild-type"}, "[3]": {"details": "KD ratio NRAS/KRAS, class symbols"}, "[4]": {"details": "KD ratio HRAS/KRAS, class symbols"}}, "note": "Where a SMILES comes first, the peptide text is derived from it. Bridges are numbered along the chain shown (N, C = ends). [ ]: non-standard residue; d: D form. The star is where a group is joined. hPhe(3,5-F2-4-CF3) = N[C@@H](CCc1cc(F)c(C(F)(F)F)c(F)c1)C(=O)O; hPhe(3-Cl-4-CF3) = N[C@@H](CCc1ccc(C(F)(F)F)c(Cl)c1)C(=O)O; NPrPhe(4-CF3) = CCCN[C@@H](Cc1ccc(C(F)(F)F)cc1)C(=O)O; NEtPhe(4-Me) = CCN[C@@H](Cc1ccc(C)cc1)C(=O)O; NMeGly(cPent) = CN[C@H](C(=O)O)C1CCCC1; αMeCha = C[C@](N)(CC1CCCCC1)C(=O)O; Hyp = O=C(O)[C@@H]1C[C@@H](O)CN1; NMeD = CN[C@@H](CC(=O)O)C(=O)O; NMeL = CN[C@@H](CC(C)C)C(=O)O; Morpholide = C1CN(*)CCO1; NMeA = CN[C@@H](C)C(=O)O; Ac5c = NC1(C(=O)O)CCCC1; Aze = O=C(O)[C@@H]1CCN1; Sar = CNCC(=O)O"}
{"smiles": "CC[C@H](C)[C@@H]1NC(=O)[C@H](CC(C)C)N(C)C(=O)C[C@@H](C(=O)N2CCOCC2)N(C)C(=O)[C@H](C2CCCC2)N(C)C(=O)C2(CCCC2)NC(=O)[C@@H]2C[C@@H](O)CN2C(=O)[C@H](CCc2ccc(C(F)(F)F)c(Cl)c2)NC(=O)CN(C)C(=O)[C@H](Cc2ccc(C)cc2)N(CC)C(=O)[C@@H]2CCN2C(=O)[C@H](C)N(C)C1=O", "note": "[PP0013] ([NMeL]I[NMeA][Aze][NEtPhe(4-Me)][Sar][hPhe(3-Cl-4-CF3)][Hyp][Ac5c][NMeGly(cPent)][NMeD]-Morpholide; lactam N-11)", "values": [{"measurement": "NRAS/KRAS (ratio of KD for GDP-bound NRAS wild-type to KD for KRAS)", "setting": "[1]; KD ratio NRAS/KRAS, SPR", "result": "C (A compound having a KD ratio of 0.1 or more and less than 3 is denoted as C)"}, {"measurement": "HRAS/KRAS (ratio of KD for GDP-bound HRAS wild-type to KD for KRAS)", "setting": "[2]; KD ratio HRAS/KRAS, SPR", "result": "C (A compound having a KD ratio of 0.1 or more and less than 3 is denoted as C)"}]}
{"smiles": "CCO[C@@H]1C[C@H]2C(=O)NC3(CC(C)(C)C3)C(=O)N(C)[C@@H](CC(C)(C)C)C(=O)N(C)[C@H](C(=O)N(C)C)CC(=O)N(C)[C@@H](C(C)C)C(=O)N[C@@H]([C@@H](C)CC)C(=O)N(C)CC(=O)N(C)[C@H]3C/C=C\\CCN(C3=O)[C@@H](Cc3ccc(C(F)(F)F)cc3)C(=O)N(C)CC(=O)N[C@@H](CCc3ccc(C(F)(F)F)c(OC)c3)C(=O)N2C1", "note": "[PP2773]", "values": [{"measurement": "NRAS/KRAS (ratio of KD value with respect to GDP-bound NRAS wild-type protein to KD value with respect to KRAS)", "setting": "[1]; [3]", "result": "B (a compound having 3 or more and less than 10 is denoted as B)"}, {"measurement": "HRAS/KRAS (ratio of KD value with respect to GDP-bound HRAS wild-type protein to KD value with respect to KRAS)", "setting": "[2]; [4]", "result": "B (a compound having 3 or more and less than 10 is denoted as B)"}]}
{"smiles": "CCCN1C(=O)[C@@H]2CCN2C(=O)CN(C)C(=O)[C@H]([C@@H](C)CC)NC(=O)[C@H](CC(C)C)N(C)C(=O)C[C@@H](C(=O)N2CCOCC2)N(C)C(=O)[C@H](C2CCCC2)N(C)C(=O)[C@](C)(CC2CCCCC2)NC(=O)[C@@H]2CCCN2C(=O)[C@H](CCc2cc(F)c(C(F)(F)F)c(F)c2)NC(=O)CN(C)C(=O)[C@@H]1Cc1ccc(C(F)(F)F)cc1", "note": "[PP0796] ([NMeL]I[Sar][Aze][NPrPhe(4-CF3)][Sar][hPhe(3,5-F2-4-CF3)]P[αMeCha][NMeGly(cPent)][NMeD]-Morpholide; lactam N-11)", "values": [{"measurement": "NRAS/KRAS (ratio of KD value with respect to GDP-bound NRAS wild-type protein to KD value with respect to KRAS)", "setting": "[1]; KD ratio NRAS/KRAS, SPR", "result": "C (A compound having a KD ratio of 0.1 or more and less than 3 is denoted as C)"}, {"measurement": "HRAS/KRAS (ratio of KD value with respect to GDP-bound HRAS wild-type protein to KD value with respect to KRAS)", "setting": "[2]; KD ratio HRAS/KRAS, SPR", "result": "B (a compound having 3 or more and less than 10 is denoted as B)"}]}
{"smiles": "CCO[C@@H]1C[C@H]2C(=O)NC3(CCC3)C(=O)N(C)[C@@H](C3CCCC3)C(=O)N(C)[C@H](C(=O)N(C)C)CC(=O)N(C)[C@@H](CC3CCCC3)C(=O)N[C@@H]([C@@H](C)CC)C(=O)N(C)CC(=O)N(C)[C@H]3C/C=C\\CCN(C3=O)[C@@H](Cc3ccc(C)cc3)C(=O)N(C)CC(=O)N[C@@H](CCc3ccc(C4CC4)c(Cl)c3)C(=O)N2C1", "note": "[PP2684]", "values": [{"measurement": "NRAS/KRAS (ratio of KD value with respect to GDP-bound NRAS wild-type protein to KD value with respect to KRAS)", "setting": "[1]; [3]", "result": "A (a compound having 10 or more and less than 20 is denoted as A)"}, {"measurement": "HRAS/KRAS (ratio of KD value with respect to GDP-bound HRAS wild-type protein to KD value with respect to KRAS)", "setting": "[2]; [4]", "result": "A (a compound having 10 or more and less than 20 is denoted as A)"}]}
{"smiles": "CCC[C@H]1C(=O)N[C@@H]([C@@H](C)CC)C(=O)N(C)CC(=O)N(C)[C@H]2C/C=C\\CCN(C2=O)[C@@H](Cc2ccc(C(F)(F)F)cc2)C(=O)N(C)CC(=O)N[C@@H](CCc2ccc3c(C)cn(C)c3c2)C(=O)N2C[C@H](OCC)C[C@H]2C(=O)NC2(CC(C)(C)C2)C(=O)N(C)[C@@H](C(CC)CC)C(=O)N(C)[C@H](C(=O)N(C)C)CC(=O)N1C", "note": "[PP2908]", "values": [{"measurement": "NRAS/KRAS (ratio of KD value with respect to GDP-bound NRAS wild-type protein to KD value with respect to KRAS)", "setting": "[1]; [3]", "result": "AA (a compound having 20 or more is denoted as AA)"}, {"measurement": "HRAS/KRAS (ratio of KD value with respect to GDP-bound HRAS wild-type protein to KD value with respect to KRAS)", "setting": "[2]; [4]", "result": "A (a compound having 10 or more and less than 20 is denoted as A)"}]}
{"smiles": "CC[C@H](C)[C@@H]1NC(=O)[C@H](CC)N(C)C(=O)C[C@@H](C(=O)N(C)C)N(C)C(=O)[C@H](C2CCCC2)N(C)C(=O)C2(CCC2)NC(=O)[C@@H]2CCCN2C(=O)[C@H](CCc2cc(C)c(Cl)c(C)c2)NC(=O)CN(C)C(=O)[C@H](Cc2ccc(C(F)(F)F)cc2)N2CC/C=C\\C[C@@H](C2=O)N(C)C(=O)CN(C)C1=O", "note": "[PP1822]", "values": [{"measurement": "NRAS/KRAS (ratio of KD value for NRAS to KD value for KRAS)", "setting": "[1]; SPR", "result": "A (a compound having 10 or more and less than 20 is denoted as A)"}, {"measurement": "HRAS/KRAS (ratio of KD value for HRAS to KD value for KRAS)", "setting": "[2]; SPR", "result": "B (a compound having 3 or more and less than 10 is denoted as B)"}]}
{"smiles": "CC[C@H](C)[C@@H]1NC(=O)[C@H](CC(C)C)N(C)C(=O)C[C@@H](C(=O)N(C)C)N(C)C(=O)[C@H](C2CCCC2)N(C)C(=O)C2(CC(C)(C)C2)NC(=O)[C@@H]2CCCN2C(=O)[C@H](CCc2cc(F)c(C(F)(F)F)c(F)c2)NC(=O)CN(C)C(=O)[C@H](Cc2ccc(C(F)(F)F)cc2)N2CC/C=C\\C[C@@H](C2=O)N(C)C(=O)CN(C)C1=O", "note": "[PP1727]", "values": [{"measurement": "NRAS/KRAS (ratio of KD value for NRAS to KD value for KRAS)", "setting": "[1]; SPR", "result": "A (a compound having 10 or more and less than 20 is denoted as A)"}, {"measurement": "HRAS/KRAS (ratio of KD value for HRAS to KD value for KRAS)", "setting": "[2]; SPR", "result": "A (a compound having 10 or more and less than 20 is denoted as A)"}]}
